Where a name gives a salt, the structure may show the parent alone. Read-outs that look alike come from different tables or passages of the source.
What was measured:
[1] = system: MEK (phosphorylation of MAP kinase (ERK) in murine colon 26 (C26) carcinoma cells); assay: Cellular inhibition of ERK phosphorylation, pERK ELISA format (C26ELSA); type: cell-based; conditions: Mus musculus, 1 h, one hour treatment
From the text: Otherwise, percent inhibitions at measured concentrations are reported.

[2] = system: MEK (phosphorylation of MAP kinase (ERK) in murine colon 26 (C26) carcinoma cells); conditions: read-out: C26CPA1 IC50, one hour treatment
Procedure: Since ERK1 and ERK2 represent the only known substrates for MEK1 and MEK2, the measurement of inhibition of ERK phosphorylation in cells provides direct read out of cellular MEK inhibition by the compounds of the invention. Detection of phosphorylation of ERK was carried out either by Western blot or ELISA format. […] Supernatants were then subjected to gel electrophoresis and hybridized to a primary antibody recognizing dually phosphorylated ERK1 and ERK2. To evaluate total MAPK levels, blots were subsequently ‘stripped’ and re-probed with a 1:1 mixture of polyclonal antibodies recognizing unphosphorylated ERK1 and ERK2. For pERK ELISA assay, pERK TiterZyme Enzyme immunometric Assay kits were acquired from Assay Designs, Inc (Ann Arbor, Mich.). Briefly, cells were harvested in lysis solution containing 50 mM β-glycerophosphate, 10 mM HEPES, pH7.4, 70 mM NaCl, 2 mM EDTA and 1% SDS and protein lysates were diluted 1:15 with supplied Assay buffer prior to the execution of the assay. The subsequent steps were carried out essentially as recommended by the manufacturer.

CCOC(=O)c1cn2ccnc2cc1Nc1ccc(I)cc1F [Example 1, 7-(2-Fluoro-4-iodo-phenylamino)-imidazo[1,2-a]pyridine-6-carboxylic acid ethyl ester]
melting point: 132 to 134 °C

NC(=O)c1cn2ccnc2cc1Nc1ccc(I)cc1F [Example 3, 7-(2-Fluoro-4-iodo-phenylamino)-imidazo[1.2-a]pyridine-6-carboxylic acid amide]
IC50 [1]: 1.9 nM

O=C(NCCO)C1=CN2CCN=C2C=C1Nc1ccc(I)cc1F [Example 4, 7-(2-Fluoro-4-iodo-phenylamino)-2,3-dihydro-imidazo[1.2-a]pyridine-6-carboxylic acid (2-hydroxy-ethyl)-amide; hydroiodide salt]
IC50 [2]: 177 nM

CCOC(=O)c1cn2c(C)nnc2cc1Nc1ccc(I)cc1F [Example 5, 7-(2-Fluoro-4-iodo-phenylamino)-3-methyl-[1,2,4]triazolo[4.3-a]pyridine-6-carboxylic acid ethyl ester]
melting point: 201 to 204 °C

Cc1nnc2cc(Nc3ccc(I)cc3F)c(C(N)=O)cn12 [Example 6, 7-(2-Fluoro-4-iodo-phenylamino)-3-methyl-[1,2,4]triazolo[4,3-a]pyridine-6-carboxylic acid amide]
melting point: 300 to 310 °C (dec.)
